Measured values: patent US20110166121A1 (LG LIFE SCIENCES LTD., priority 2008, published 2011)

Key:
[1] = tested on: Human platelet aggregation caused by ADP; assay: Inhibition of ADP-induced platelet aggregation (Mimic-human PRP); assay type: cell-based; conditions: 20 μM ADP, human platelet concentrate diluted with PPP, absorption at 595 nm
Method in brief: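 Ki came from non-linear sigmoidal fits of inhibition, measured as the 3-min rise in absorbance at 595 nm after 20 μM ADP, relative to 0/20 μM ADP controls. Platelets (3–4×10^8/mL in PPP-diluted human PRP) were exposed to 0.01–30 μM compound for 20 min at room temperature beforehand.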

Human P2Y12 receptor = target: T1, Human P2Y12 receptor (Homo sapiens, UniProt Q9H244); assay: Human P2Y12 receptor cell membrane binding assay with [3H] 2-Mes-ADP; conditions: 1 nM [3H] 2-Mes-ADP, membranes of HEK cells expressing P2Y12 receptor; read-out: Binding activity (IC50)
T1 construct: expressed in transfected cells; host or cells: HEK cells
T1 sequence (Q9H244 whole entry): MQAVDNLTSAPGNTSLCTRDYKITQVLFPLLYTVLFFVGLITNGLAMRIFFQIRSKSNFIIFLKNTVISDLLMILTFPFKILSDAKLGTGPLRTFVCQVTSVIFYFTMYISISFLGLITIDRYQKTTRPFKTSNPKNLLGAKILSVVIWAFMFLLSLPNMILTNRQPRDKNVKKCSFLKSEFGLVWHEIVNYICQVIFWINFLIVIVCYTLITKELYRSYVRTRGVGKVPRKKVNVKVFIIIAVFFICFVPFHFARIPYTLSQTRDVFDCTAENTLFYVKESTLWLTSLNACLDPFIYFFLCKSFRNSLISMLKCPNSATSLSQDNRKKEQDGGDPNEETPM
Method in brief: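 Competition binding used 1 nM [3H]2-MeS-ADP on P2Y12-expressing HEK cell membranes for 1 h at room temperature, followed by filtration and scintillation counting.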

| Compound | Ki [1] [nM] | IC50 (Human P2Y12 receptor) [nM] |
| --- | --- | --- |
| CCCc1cc2c(N3CCn4c(nnc4C(F)(F)F)C3)nc(CN3CC[C@@H](O)C3)nc2s1 [Example 4-21, (R)-1-[6-Propyl-4-(3-trifluoromethyl-5,6-dihydro-8H-[1,2,4]triazolo[4,3-a]pyrazin-7-yl)thieno[2,3-d]pyrimidin-2-ylmethyl]pyrrolidin-3-ol] | 140 | 1110 |
| CCCc1cc2c(N3CCn4c(nnc4C(F)(F)F)C3)nc(COC(=O)c3ccccc3)nc2s1 [Example 4-22, Benzoic Acid 6-propyl-4-(3-trifluoromethyl-5,6-dihydro-8H-[1,2,4]triazolo[4,3-a]pyrazin-7-yl)thieno[2,3-d]pyrimidin-2-ylmethyl ester] | 1600 | 850 |
| CCCc1cc2c(N3CCn4c(nnc4C(F)(F)F)C3)nc(COc3ccccc3)nc2s1 [Example 4-23, 7-(2-Phenoxymethyl-6-propyl-thieno[2,3-d]pyrimidin-4-yl)-3-trifluoromethyl-5,6,7,8-tetrahydro-[1,2,4]triazolo[4,3-a]pyrazine] | 6850 | 420 |
| CCCc1cc2c(N3CCn4c(nnc4C(F)(F)F)C3)nc(COc3ccccc3C(=O)OC)nc2s1 [Example 4-24, 2-[6-Propyl-4-(3-trifluoromethyl-5,6-dihydro-8H-[1,2,4]triazolo[4,3-a]pyrazin-7-yl)thieno[2,3-d]pyrimidin-2-ylmethoxy]benzoic acid methyl ester] | 8100 | 700 |
| CCCc1cc2c(N3CCn4c(nnc4C(F)(F)F)C3)nc(COc3ccccc3C(=O)O)nc2s1 [Example 4-25, 2-[6-Propyl-4-(3-trifluoromethyl-5,6-dihydro-8H-[1,2,4]triazolo[4,3-a]pyrazin-7-yl)thieno[2,3-d]pyrimidin-2-ylmethoxy]benzoic acid] | 1900 | 353 |
| CCCc1cc2c(N3CCn4c(nnc4C(F)(F)F)C3)nc(COc3cccc(C(=O)O)c3)nc2s1 [Example 4-26, 3-[6-Propyl-4-(3-trifluoromethyl-5,6-dihydro-8H-[1,2,4]triazolo[4,3-a]pyrazin-7-yl)thieno[2,3-d]pyrimidin-2-ylmethoxy]benzoic acid] | 2100 | 160 |
| CCCc1cc2c(N3CCn4c(nnc4C(F)(F)F)C3)nc(-c3nc(CC)no3)nc2s1 [Example 4-27, 7-[2-(3-Ethyl-[1,2,4]oxadiazol-5-yl)-6-propyl-thieno[2,3-d]pyrimidin-4-yl]-3-trifluoromethyl-5,6,7,8-tetrahydro-[1,2,4]triazolo[4,3-a]pyrazine] | 1500 | 130 |
| CCCc1cc2c(N3CCn4c(nnc4C(F)(F)F)C3)nc(-c3nc(-c4ccccc4)no3)nc2s1 [Example 4-28, 7-[2-(3-Phenyl-[1,2,4]oxadiazol-5-yl)-6-propyl-thieno[2,3-d]pyrimidin-4-yl)-3-trifluoromethyl-5,6,7,8-tetrahydro-[1,2,4]triazolo[4,3-a]pyrazine] | 670 | 330 |
| CCCc1cc2c(N3CCn4c(nnc4C(F)(F)F)C3)nc(-c3nc(CCOC)no3)nc2s1 [Example 4-29, 7-{2-[3-(2-Methoxy-ethyl)-[1,2,4]oxadiazol-5-yl]-6-propyl-thieno[2,3-d]pyrimidin-4-yl}-3-trifluoromethyl-5,6,7,8-tetrahydro-[1,2,4]triazolo[4,3-a]pyrazine] | 480 | 330 |
| CCCc1cc2c(N3CCn4c(nnc4C(F)(F)F)C3)nc(-c3nc(CCO)no3)nc2s1 [Example 4-30, 2-{5-[6-Propyl-4-(3-trifluoromethyl-5,6-dihydro-8H-[1,2,4]triazolo[4,3-a]pyrazin-7-yl)thieno[2,3-d]pyrimidin-2-yl]-[1,2,4]oxadiazol-3-yl}ethanol] | 830 | 6500 |
| CCCc1cc2c(N3CCn4c(nnc4C(F)(F)F)C3)nc(-c3nc(CC(OC)OC)no3)nc2s1 [Example 4-31, 7-{2-[3-(2,2-Dimethoxy-ethyl)-[1,2,4]oxadiazol-5-yl]-6-propyl-thieno[2,3-d]pyrimidin-4-yl}-3-trifluoromethyl-5,6,7,8-tetrahydro-[1,2,4]triazolo[4,3-a]pyrazine] | > 4000 | 420 |
| CCCc1cc2c(N3CCn4c(nnc4C(F)(F)F)C3)nc(-c3nnc(C)o3)nc2s1 [Example 4-32, 7-[2-(5-Methyl-[1,3,4]oxadiazol-2-yl)-6-propyl-thieno[2,3-d]pyrimidin-4-yl]-3-trifluoromethyl-5,6,7,8-tetrahydro-[1,2,4]triazolo[4,3-a]pyrazine] | 150 | 230 |
| CCCc1cc2c(N3CCn4c(nnc4C(F)(F)F)C3)nc(-c3nnc(-c4ccccc4)o3)nc2s1 [Example 4-33, 7-[2-(5-Phenyl-[1,3,4]oxadiazol-2-yl)-6-propyl-thieno[2,3-d]pyrimidin-4-yl]-3-trifluoromethyl-5,6,7,8-tetrahydro-[1,2,4]triazolo[4,3-a]pyrazine] | 100 | 75 |
| CCCc1cc2c(N3CCn4c(nnc4C(F)(F)F)C3)nc(-c3nnc(CC#N)o3)nc2s1 [Example 4-34, {5-[6-Propyl-4-(3-trifluoromethyl-5,6-dihydro-8H-[1,2,4]triazolo[4,3-a]pyrazin-7-yl)thieno[2,3-d]pyrimidin-2-yl]-[1,3,4]oxadiazol-2-yl}acetonitrile] | 13 | 68 |
| CCCc1cc2c(N3CCn4c(nnc4C(F)(F)F)C3)nc(-c3nnc(COC)o3)nc2s1 [Example 4-35, 7-[2-(5-Methoxymethyl-[1,3,4]oxadiazol-2-yl)-6-propyl-thieno[2,3-d]pyrimidin-4-yl]-3-trifluoromethyl-5,6,7,8-tetrahydro-[1,2,4]triazolo[4,3-a]pyrazine] | 30 | 130 |
| CCCc1cc2c(N3CCn4c(nnc4C(F)(F)F)C3)nc(-c3nnc(CO)o3)nc2s1 [Example 4-36, {5-[6-Propyl-4-(3-trifluoromethyl-5,6-dihydro-8H-[1,2,4]triazolo[4,3-a]pyrazin-7-yl)thieno[2,3-d]pyrimidin-2-yl]-[1,3,4]oxadiazol-2-yl}methanol] | 300 | 250 |
| CCCc1cc2c(N3CCn4c(nnc4C(F)(F)F)C3)nc(-c3nnc(CCOC)o3)nc2s1 [Example 4-37, 7-{2-[5-(2-Methoxyethyl)-[1,3,4]oxadiazol-2-yl]-6-propyl-thieno[2,3-d]pyrimidin-4-yl}-3-trifluoromethyl-5,6,7,8-tetrahydro-[1,2,4]triazolo[4,3-a]pyrazine] | 250 | 192 |
| CCCc1cc2c(N3CCn4c(nnc4C(F)(F)F)C3)nc(-c3nnc(CCO)o3)nc2s1 [Example 4-38, 2-{5-[6-Propyl-4-(3-trifluoromethyl-5,6-dihydro-8H-[1,2,4]triazolo[4,3-a]pyrazin-7-yl)thieno[2,3-d]pyrimidin-2-yl]-[1,3,4]oxadiazol-2-yl}ethanol] | 250 | 320 |
| CCCc1cc2c(N3CCn4c(nnc4C(F)(F)F)C3)nc(-c3nnc(N)o3)nc2s1 [Example 4-39, 5-[6-Propyl-4-(3-trifluoromethyl-5,6-dihydro-8H-[1,2,4]triazolo[4,3-a]pyrazin-7-yl)thieno[2,3-d]pyrimidin-2-yl]-[1,3,4]oxadiazol-2-ylamine] | 160 | 100 |
| CCCc1cc2c(N3CCn4c(nnc4C(F)(F)F)C3)nc(-c3nnc(CC(=O)OCC)o3)nc2s1 [Example 4-40, {5-[6-Propyl-4-(3-trifluoromethyl-5,6-dihydro-8H-[1,2,4]triazolo[4,3-a]pyrazin-7-yl)thieno[2,3-d]pyrimidin-2-yl]-[1,3,4]oxadiazol-2-yl}acetic acid ethyl ester] | 270 | 230 |
| CCCc1cc2c(N3CCn4c(nnc4C(F)(F)F)C3)nc(-c3nnc(CC(=O)O)o3)nc2s1 [Example 4-41, {5-[6-Propyl-4-(3-trifluoromethyl-5,6-dihydro-8H-[1,2,4]triazolo[4,3-a]pyrazin-7-yl)thieno[2,3-d]pyrimidin-2-yl]-[1,3,4]oxadiazol-2-yl}acetic acid] | 700 | 410 |
| CCCc1cc2c(N3CCn4c(nnc4C(F)(F)F)C3)nc(-c3nnc(Cc4ccccc4)o3)nc2s1 [Example 4-42, 7-[2-(5-Benzyl-[1,3,4]oxadiazol-2-yl)-6-propyl-thieno[2,3-d]pyrimidin-4-yl]-3-trifluoromethyl-5,6,7,8-tetrahydro-[1,2,4]triazolo[4,3-a]pyrazine] | 160 | 29 |
| CCCc1cc2c(N3CCn4c(nnc4C(F)(F)F)C3)nc(-c3nnc(CC4CCCCC4)o3)nc2s1 [Example 4-43, 7-[2-(5-Cyclohexylmethyl-[1,3,4]oxadiazol-2-yl)-6-propyl-thieno[2,3-d]pyrimidin-4-yl]-3-trifluoromethyl-5,6,7,8-tetrahydro-[1,2,4]triazolo[4,3-a]pyrazine] | 2700 | 147 |
| CCCc1cc2c(N3CCn4c(nnc4C(F)(F)F)C3)nc(-c3nnn[nH]3)nc2s1 [Example 4-44, 7-[6-Propyl-2-(1H-tetrazol-5-yl)-thieno[2,3-d]pyrimidin-4-yl]-3-trifluoromethyl-5,6,7,8-tetrahydro-[1,2,4]triazolo[4,3-a]pyrazine] | > 4000 | 1600 |
| CCCc1cc2c(N3CCn4c(nnc4C(F)(F)F)C3)nc(C3=N[C@H](C(=O)OC)CS3)nc2s1 [Example 4-47, (R)-2-[6-Propyl-4-(3-trifluoromethyl-5,6-dihydro-8H-[1,2,4]triazolo[4,3-a]pyrazin-7-yl)thieno[2,3-d]pyrimidin-2-yl]-4,5-dihydro-thiazole-4-carboxylic acid methyl ester] | 13 | 24 |
